Reference: patent US12186342B2, “Autologous irradiated whole cell tumor vaccines lentivirally engineered to express CD80, IL-15 and IL-15 receptor alpha” (The Regents of the University of California, priority 2016, dated 2025)

Key:
Assay type in all cases: in vivo, mice
[1] = system: 32Dp210-luc-HSV-TK+ leukemia; test: Minimal residual disease model: GCV remission induction
Method: FIG. 17A-FIG. 17C depict development of a minimal residual diseased (MRD) model in 32Dp210 leukemia. (FIG. 17A) In vivo bioluminescence analysis of effects of ganciclovir (GCV) treatment of 32Dp210-luc-HSV-TK+ leukemia. Mice inoculated IV with 32Dp210-luc-HSV-TK+ leukemia on day 0 were treated for 14 days with GCV (50 mg/kg) beginning at day 14. Left panel: Day 14 after tumor inoculation, Right panel: Day 28 after tumor inoculation and day 14 of GCV treatment. […] Mean photon counts+S.E.M. per animal are plotted on the y-axis after imaging at day 14 (white bars) and day 28 after tumor inoculation (gray bars). Uninjected controls (n=5) represent normal, non-tumor bearing mice injected with luciferin to establish background levels of in vivo bioluminescence used to define “complete remission”. […] Leukemic mice with tumor progression despite GCV administration (Non-responders, n=3) are depicted in the last two lanes on the right. […] Comparison of the percentage of 32Dp210-GFP+HSVTK+ cells in peripheral blood, spleen and bone marrow of responding mice (MRD). The percentage of GFP+ cells detected by flow cytometric analysis of blood (filled circle), spleen (open triangle), and bone marrow (filled diamonds) from each mouse achieving IVIS defined remission with MRD, are indicated on the Y axis. The mean for each group is designated by a horizontal line for each group as well as the S.E.M. Mice with MRD defined by semi-quantitative in vivo bioluminescence analyses had <5% leukemic cells in all tissues examined consistent with the clinical/pathological definition of leukemic remission.
(§1) At day 10 after IV injection of 1×10^5 32Dp210-luc cells, all mice had detectable leukemia by IVIS, and began a 14 day treatment (50 mg/kg/day) with Ganciclovir (GCV) (APP Pharmaceuticals, LLC, Schaumberg, IL). A higher dose of 100 mg GCV/kg/day was administered to confirm that GCV had minimal or no effects on blood counts (Table 1).
To validate this model, mice were treated daily with GCV once 32Dp210 leukemia was evident by IVIS. […] (FIG. 17A). […] To assess responses after GCV treatment, the frequency of 32Dp210-GFP+/HSV-TK+ cells in spleen, blood, and bone marrow were quantified by flow cytometric analysis (FIG. 17C). […] Lower numbers of GFP+ leukemia cells were detected in spleen after 14 days of GCV.

[2] = system: 32Dp210-luc-HSV-TK+ leukemia; test: Post-remission vaccination in the MRD model
Source text: FIG. 18A-FIG. 18B depict the efficacy of the 32Dp210 vaccine as post-remission therapy to treat MRD. (FIG. 18A) In vivo bioluminescence analyses of 32Dp210-luc-HSV-TK leukemic mice undergoing GCV treatment with or without post-remission vaccination with 32Dp210-CD80-IL-15-IL-15Rα cells. Mice were inoculated with 1×10^5 32Dp210 cells on day 0 as indicated by the schema at the top of the figure. On day 10 mice underwent in vivo bioluminescence imaging and average photon counts per animal were plotted (upper set of bar graphs). N1-N5 represents normal, non-tumor bearing mice injected with luciferin on the same day, to establish background levels. Lanes 1-15 indicate mice inoculated with leukemia and subsequently treated with GCV according to the schema at the top of the figure. Gray bars in lanes 1-5 indicate IVIS analyses of mice that would receive 14 days GCV treatment and no further intervention; Black bars in lanes 6-15 depict IVIS analyses of mice treated with 14 days of GCV treatment that would be followed by serial vaccination with irradiated 32Dp210-IL-15/IL-15Rα/CD80 cells beginning at day 17. Lower panel of bar graphs depicts semi-quantitative IVIS studies after 5 days of GCV administration (day 15) in the same animals analyzed in the upper panel of bar graphs at day 10 after tumor inoculum. […]

Effect of GCV on CBC = details: after 2 weeks of treatment
Method: as §1
(§2) The major clinical application of an autologous AML vaccine strategy would be as post-remission immunotherapy to prolong relapse free survival in patients with MRD. To recapitulate this clinical setting, we developed a murine model of MRD for testing our vaccine. Initially, several chemotherapeutic regimens, previously shown to induce transient responses in 32Dp210 leukemia, were tested^48. […] A different strategy was therefore adopted for achieving post-remission MRD in mice with high leukemia burdens by lentivirally engineering a 32Dp210 cell line to express the herpes thymidine kinase (HSV-TK) suicide gene^36. Using this approach, treatment with ganciclovir (GCV) could be used to induce remission without the confounding immune and cytopenic effects of conventional chemotherapy^49. In this context, GCV treatment should not have a direct impact on leukemia-associated immune deviation, except as associated with reduction of tumor burden, since effects of GCV are primarily restricted to suppression of marrow proliferation, but not inhibition of immune function^50.

32Dp210 leukemia = test: Dose-finding studies of chemotherapeutic regimens in advanced 32Dp210 leukemia; details: data not shown
Method: as §2

SMILES: Nc1nc(O)c2ncn(COC(CO)CO)c2n1 [GCV, ganciclovir]
- mice showing remission ([1]; GCV begun on day 14 after tumor inoculation, read two weeks later (day 28)): Seven of 10
- blasts in bone marrow ([1]; GCV-treated mice in remission): < 5%
- GFP+ cells in BM ([1]; GCV-treated mice in remission, n=7/7): < 0.5%
- GFP+ leukemia cells in spleen ([1]; after 14 days of GCV): Lower numbers
- leukemic cells in all tissues examined ([1]; mice with MRD, blood, spleen, bone marrow): < 5%
- relapse after remission ([2]; 14-day GCV with no further therapy): eventually relapsed
- response by in vivo bioluminescence ([2]; day 5 of GCV administration (day 15), 1×10^5 cells inoculated): most of the leukemic mice had major responses
- Lymphocytes (Effect of GCV on CBC; 100 mg GCV/kg/day): 2.036 ± 0.279 k/μL
- Monocytes (Effect of GCV on CBC; 100 mg GCV/kg/day): 0.310 ± 0.0364 k/μL
- Neutrophils (Effect of GCV on CBC; 100 mg GCV/kg/day): 4.141 ± 0.580 k/μL
- White Blood Cells (Effect of GCV on CBC; 100 mg GCV/kg/day): 6.638 ± 0.575 k/μL
- decline in WBC, neutrophils, hemoglobin, or monocytes (Effect of GCV on CBC): no significant decline
- number of peripheral lymphocytes (Effect of GCV on CBC; remained within the normal range): only a small reduction

SMILES: Nc1ccn([C@@H]2O[C@H](CO)[C@@H](O)[C@@H]2O)c(=O)n1 [cytosine arabinoside]
- outcome of dose-finding studies in leukemic mice (32Dp210 leukemia): either ineffective, or resulted in both toxicity and lethality
